The test system of series [1] is advanced malignancies. As to conditions: Japanese population, cited from earlier work.
In series [2] the test system is FGF/FGFR1-3 altered, advanced solid tumors. Description: Antitumor activity per RECIST v1.1 by investigator, phase I. Type of series: in vivo, human (Chinese patients). As to conditions: 12 patients. The procedure:
Tumor response was assessed by investigator according to Response Evaluation Criteria in Solid Tumors (RECIST) v1.1 every 9 weeks after first dosing.
(§1) Tumor was assessed per RECIST v1.1 by investigator at baseline, and every 9 weeks after first dosing. […] Adverse events (AEs) were graded per CTCAE v5.0. […] Sponsor-defined clinically notable TEAEs included hyperphosphatemia, hypophosphatemia, nail toxicities, and serous retinal detachment.
(§2) All statistical analyses were conducted using SAS version 9.4 (or higher).
The Clopper-Pearson method was used to calculate the 95% confidence interval (CI) of ORR and DCR. The Kaplan–Meier method and the Brookmeyer and Crowley method were used to estimate PFS.

The test system of series [3] is serum phosphate. Description: Pharmacodynamics: serum phosphate level as PD marker for FGFR inhibition. Type of series: in vivo, human (Chinese patients). As for the experimental part:
Serum phosphate level was defined as the PD marker in the study for assessing FGFR inhibition. […] Serum phosphate levels were measured using phosphomolybdate UV method (measuring range: 0.31‑20.0 mg/dL) by the central laboratory (Q2 Solutions [Beijing] Co., Ltd.).
Serum samples were analyzed for the concentration of serum phosphate using phosphomolybdate UV method by the central laboratory (Q2 Solutions (Beijing) Co., Ltd.). The concentration of phosphomolybdate formed is directly proportional to the inorganic phosphate concentration and is measured photometrically. Phosphorus quantification was determined in human plasma on Roche/Hitachi cobas c systems. Measuring range was 0.10‑6.46 mmol/L (0.31‑20.0 mg/dL). Reagents: Phosphate (Inorganic) ver.2 (250 tests) Catalouge:03183793 122.

For series [4] the following is noted: any grade, Japanese patients; cited from earlier work.
The conditions of series [5]: cited from earlier work.
Series [6] in a line: Safety: treatment-emergent adverse events (CTCAE v5.0), phase I. Format: in vivo. The procedure: as §1, §2
Series [7] deals with serum phosphate. As to conditions: Western population; cited from earlier work.
Series [8] is described as follows: Plasma pharmacokinetics of pemigatinib (LC–MS/MS, non-compartmental), phase I. As to conditions: for Tmax: read-out: tmax, median (min, max). Type of series: in vivo, human (Chinese patients).
For series [9] the following is noted: Western population, steady state, cited from earlier work.
Series [10] concerns FGF/FGFR alterations and advanced malignancies. As to conditions: Western patients, cited from earlier work.
For series [11], the system named is UC. More on the design: method as in PMID 31340094. Particulars: 99 patients with UC; cited from earlier work.
In series [12] the test system is FGFR2 fusion/rearrangement-positive cholangiocarcinoma (CCA). Also on record: method as in PMID 29182496. As to conditions: 108 previously-treated patients; cited from earlier work.
The mark [13] stands for this setting: 13.5 mg oral QD, C1D14 (steady state), N=12.

Where two headings read alike, the source gives them in different places.

Consider `CCN1C(=O)N(c2c(F)c(OC)cc(OC)c2F)Cc2cnc3[nH]c(CN4CCOCC4)cc3c21` [pemigatinib], for which the Objective response rate in [1] (Fight-102, 1/25) is reported as 4.0%. In [1] (Fight-102), the Disease control rate is 40.0%. The “Objective response rate (ORR)” value in series [2] (13.5 mg QD 2-weeks-on/1-week-off, confirmed) amounted to 16.7%. For the same molecule, the “Best overall confirmed response: Partial response” value in [2] is given as 2 (16.7%) n (%). The Objective response rate in series [2] (95% CI […] - 48.4%) is 2 (16.7%) n (%). In series [3] (days 8 and 15 of cycle 1, 13.5 mg QD, 11 patients, CV% 31.3%), the “Serum phosphate level increase, mean” value amounted to 2.25 mg/dL. In addition, in series [3] (days 8 and 15 of cycle 1, Chinese patients), the “Serum phosphate concentration change from baseline, geomean (CV%)” value is 2.15 (32.9%) mg/dL. For the same molecule, the “Serum phosphate level after 1 week off” value in series [3] (post 1 week off/intermission) is listed as “decreased to baseline”. In series [3] (subsequent treatment after cycle 1), the “Serum phosphorus during subsequent treatment” value was “remained below or near the baseline levels”. Also, the Incidence of hyperphosphataemia in series [4] was 76%. In series [5] (any grade, Western patients), the Incidence of hyperphosphataemia is 75%. Besides, the Incidence of hyperphosphataemia in series [5] (grade ≥ 3, Western patients) is on record as 2.3%. The “TEAEs leading to treatment interruption/discontinuation or death” value in [6] (12 patients) is given as “No TEAEs led to treatment interruption/discontinuation or death”. In [6] (human, in vivo), the Anaemia is reported as 6 (50.0) n (%), the “Blood alkaline phosphatase increased” value is 0 n (%), the Blood bilirubin increased is 0 n (%) and the “Blood lactate dehydrogenase increased” value is listed as 0 n (%). Also, in [6] (human, in vivo), the Decreased appetite is given as 6 (50.0) n (%), the Diarrhoea was 0 n (%), the Gamma-glutamyltransferase increased is 1 (8.3) n (%) and the Hypoalbuminaemia is recorded as 6 (50.0) n (%). In addition, in series [6] (human, in vivo), the Hypochloraemia is given as 0 n (%), the Incidence of anaemia is given as 50.0%, the Incidence of arthralgia came to 8.3% and the “Incidence of decreased appetite” value stood at 50.0%. In series [6] (human, in vivo), the “Incidence of gamma-glutamyltransferase increased” value is given as 8.3%, the Incidence of hypercalcaemia is listed as 8.3%, the Incidence of hypoalbuminaemia amounted to 50.0% and the “Incidence of hypophosphatemia (clinically-notable TEAE)” value turned out to be 25.0%. Moreover, in series [6] (human, in vivo), the “Incidence of lipase increased” value is given as 8.3%, the “Incidence of nail discolouration (clinically-notable TEAE)” value is 8.3%, the “Incidence of nail disorder (clinically-notable TEAE)” value is 16.7% and the “Incidence of nail toxicity (clinically-notable TEAE)” value is 16.7%. Also, in [6] (human, in vivo), the Incidence of proteinuria is on record as 8.3%, the “Low density lipoprotein increased” value is given as 0 n (%), the “Patients with dose reduction due to proteinuria” value turned out to be 8.3% and the “Patients with grade ≥ 3 TEAEs” value was determined as 25.0%. In addition, in series [6] (human, in vivo), the “Patients with grade ≥ 3 treatment-related AEs” value is 16.7%, the Proteinuria is listed as 1 (8.3) n (%) and the Weight decreased is listed as 0 n (%). In series [6] (in vivo), the “Ocular toxicity (vision blurred of grade 1)” value is recorded as “only one patient experienced ocular toxicity” and the “Serious TEAEs” value is reported as “No serious TEAEs occurred”. The “Serum phosphate concentration change from baseline, geomean (CV%)” value in series [7] is listed as 2.6 (40.4%) mg/dL. In [8] (setting [13]), the “CLss/F, geometric mean” value was found to be 11.8 L/h; the “CLss/F, mean ± STD” value came out at 13.3 ± 7.2 L/h; the “Cmin,ss, geometric mean” value amounted to 49.8 nM; the “tmax, median (min, max)” value is on record as 1.99 (0.5, 23.2) h. Also, in series [8] (Chinese patients, steady state, 13.5 mg QD), the “AUCss,0-24, geomean” value was 2.6369 µM·h. Moreover, the maximum concentration (Cmax) in [8] (Chinese patients, steady state, 13.5 mg QD, read-out: Cmax,ss, geomean) amounted to 215 nM. In [8] (human, plasma, po, 13.5 mg, 13.5 mg oral QD, C1D1, N=12, read-out: AUC0-24, geometric mean (converted)), the AUC(0-t) is 2.13 µM·h. For the same molecule, the AUC(0-t) in series [8] (human, plasma, po, 13.5 mg, 13.5 mg oral QD, C1D1, N=12, read-out: AUC0-24, mean ± STD) amounted to 2.24 ± 0.861 µM·h. In addition, the Cmax in [8] (human, plasma, po, 13.5 mg, 13.5 mg oral QD, C1D1, N=12, read-out: Cmax, geometric mean (converted)) was 154 nM. Moreover, the Cmax in [8] (human, plasma, po, 13.5 mg, 13.5 mg oral QD, C1D1, N=12, read-out: Cmax, mean ± STD) came to 190 ± 108 nM. The Tmax in [8] (human, plasma, po, 13.5 mg, 13.5 mg oral QD, C1D1, N=12) is about 1.52 h. Moreover, in [8] (human, plasma, po, 13.5 mg, 13.5 mg oral QD, C1D14 (steady state), N=12, read-out: AUCss,0-24, geometric mean (converted)), the AUC is 2.64 µM·h. Moreover, in series [8] (human, plasma, po, 13.5 mg, 13.5 mg oral QD, C1D14 (steady state), N=12, read-out: AUCss,0-24, mean ± STD), the AUC was 2.94 ± 1.44 µM·h. Further, the peak concentration (Cmax) in [8] (human, plasma, po, 13.5 mg, 13.5 mg oral QD, C1D14 (steady state), N=12, read-out: Cmax,ss, geometric mean (converted)) is 215 nM. Also, the highest concentration (Cmax) in series [8] (human, plasma, po, 13.5 mg, 13.5 mg oral QD, C1D14 (steady state), N=12, read-out: Cmax,ss, mean ± STD) stood at 246 ± 115 nM. The Vd/F in series [8] (human, plasma, po, 13.5 mg, 13.5 mg oral QD, C1D14 (steady state), N=12, read-out: Vz/F, geometric mean (converted)) was 170 L. The Vd/F in series [8] (human, plasma, po, 13.5 mg, 13.5 mg oral QD, C1D14 (steady state), N=12, read-out: Vz/F, mean ± STD) is 179 ± 60.4 L. For the same molecule, the time to peak (Tmax) in series [8] (human, plasma, po, 13.5 mg, 13.5 mg oral QD, C1D14 (steady state), N=12) is about 1.99 h. Also, the half-life in series [8] (human, plasma, po, 13.5 mg, 13.5 mg oral QD, C1D14 (steady state), N=12, read-out: t½ (elimination half-life), geometric mean (converted)) is 11.3 h. Also, in series [8] (human, plasma, po, 13.5 mg, 13.5 mg oral QD, C1D14 (steady state), N=12, read-out: t½, mean ± STD (converted)), the half-life was 11.8 ± 4 h. Further, the “AUCss,0-24, geomean” value in [9] was 2.62 µM·h. Moreover, the Cmax in [9] (read-out: Cmax,ss, geomean) was 236 nM. Moreover, the “ORR for patients with FGFR mutations” value in [10] (Fight-101, 3/13) was 23.1%. Moreover, the “ORR for patients with FGFR fusions/rearrangements” value in [10] (Fight-101, 5/20) is 25.0%. In series [10] (Fight-101), the Disease control rate is 40.6% and the Objective response rate was 9.4%.

Regarding `COc1cc(OC)cc(N(CCNC(C)C)c2ccc3ncc(-c4cnn(C)c4)nc3c2)c1` [erdafitinib], the “Overall objective response rate (ORR)” value in [11] is 40%.

As to `CCN1CCN(c2ccc(Nc3cc(N(C)C(=O)Nc4c(Cl)c(OC)cc(OC)c4Cl)ncn3)cc2)CC1` [Infigratinib], the ORR in series [12] is on record as 23.1%.

As usually defined, the Cmax is the maximum level reached in the sampled fluid or tissue. In general, Tmax refers to the time from dosing to the highest level.

These data come from article PMC10663244 (Investigational New Drugs, 2023).
